Test in all cases: NCI-60 cell line screen, 48 h
Test [1] deals with HL-60(TB) leukemia.
Test [2] has as its system HOP-62 NSCLC.
Test [3] concerns A549 NSCLC.
Test [4] concerns KM12 colon.
The test system of test [5] is SF-295 CNS.
The test system of test [6] is NCI-H226 lung.
For test [7], the system named is MDA-MB-231 breast.
Test [8] relates to 786-0 renal.
For test [9], the system named is NCI-H460 lung.
In test [10] the test system is DU-145 prostate.

The structures appear in SMILES notation. Values joined by “and” are separate entries in the source; they are usually repeats but may differ in a detail not shown here. Equal entries are not always repeated.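 Each compound was tested at five concentrations against cells in 96-well plates for 48 hours. The concentration for 50% growth inhibition is given as GI50. TGI denotes the concentration required for complete inhibition of growth.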

For `O=S(=O)(NCCNc1nccc(-c2c(-c3ccc(F)c(O)c3)nc3sccn23)n1)c1ccc(F)cc1`, the GI50 is 2.14 µM in test [1]; 5.09 µM in test [2]; 3.63 µM in test [3]; 2.89 µM in [4]; 3.41 µM in test [5]; 4.01 µM in [6]. Besides, the GI50 was 2.23 µM in [7], 3.21 µM in test [8], 3.43 µM in test [9] and 3.47 µM in [10]. The TGI in test [1] is 6.09 µM; in test [2], 74.4 µM; in test [3], 58 µM; in [4], 14.6 µM; in test [5] it was 39.7 µM; in test [6], 20.4 µM. The TGI is more than 100 µM in test [7], more than 100 µM in [8], 17.2 µM in [9] and 29.2 µM in test [10].

Regarding `Cn1c(C(=O)c2ccncc2)cc2ccccc21`, the GI50 in [1] was 76.5 µM; in test [2], more than 100 µM; in test [3] it was more than 100 µM; in [4], 75.5 µM; in test [5], more than 100 µM; in [6], more than 100 µM. Besides, the GI50 was 66.5 µM in test [7], more than 100 µM in test [8], more than 100 µM in [9] and more than 100 µM in test [10]. The TGI in test [1], in test [2], in test [3], in [4], in test [5] and in test [6] was more than 100 µM throughout. Further, the TGI in test [7], in [8], in [9] and in test [10] was more than 100 µM in each case.

Take `Cc1[nH]nc(C(F)(F)F)c1N=NN(C)C`: the TGI is 42.9 µM in test [1]; 27 µM in test [2]; more than 100 µM in test [3]; 29.3 µM in [4]; 25.7 µM in [5]; 6.36 µM in test [6]. Also, the TGI in test [7] was 25.4 µM; in [8], 3.09 µM; in test [9] it was 26.6 µM; in test [10], 24.2 µM.

As for `O=S(=O)(NC1=NCCN1C(=S)SN1CCn2c1nsc2=S)c1cccc2ccccc12`, the GI50 in [1] was 30.9 µM; in [2], 20.6 µM; in [3], 35.2 µM; in test [4], 17.3 µM; in test [5], 18.4 µM; in test [6], 30.6 µM. Moreover, the GI50 is 14.7 µM in test [7], 23.9 µM in [8], 20.4 µM in [9] and 19.3 µM in [10]. Moreover, the TGI in test [1] is 99.3 µM; in test [2] it was 54.3 µM; in [3], more than 100 µM; in test [4], 41.4 µM; in [5] it was 71.1 µM; in test [6], more than 100 µM. Moreover, the TGI is 32.5 µM in test [7], 72.6 µM in [8], more than 100 µM in test [9] and 49.2 µM in test [10].

Turning to `COc1ccc(/C=C/C(=O)/C=C/c2cc3ccccc3[nH]c2=O)cc1`, the GI50 in [1] was 3.24 µM; in [2], 4.67 µM; in test [3], 3.16 µM; in test [4], 2.62 µM; in test [5] it was 2.65 µM; in [6] it was 4.42 µM. Besides, the GI50 in [7] was 2.87 µM; in [8], 1.87 µM; in test [9], 4.98 µM; in [10], 3.36 µM. Moreover, the TGI turned out to be 17.6 µM in test [1]; 17.8 µM in test [2]; 12.6 µM in test [3]; 6.95 µM in test [4]; 8.02 µM in test [5]; 19.7 µM in test [6]. Moreover, the TGI was 10.9 µM in test [7], 3.51 µM in test [8], 20 µM in [9] and 10.3 µM in [10].

For the molecule `C=CCNc1nc2c(s1)C(=O)c1ccccc1C2=O`, the TGI in test [1] was determined as 4.02 µM; in [2], 26.7 µM; in [3], 19.3 µM; in [4], 28.1 µM; in [5], 28.2 µM; in test [6] it was 40.1 µM. The TGI in test [7] is 23.8 µM; in test [8], 28.5 µM; in test [9], 28.5 µM; in test [10] it was 35.6 µM.

For `CC1CCC2(NC1)OC1CC3C4CC=C5CC(O)CCC5(C)C4CCC3(C)C1C2C` (stereo not given), the TGI in test [1] is 31.5 µM and 29.9 µM; in test [2], 92.4 µM and 46.2 µM; in [3] it was more than 100 µM; in [4] it was 47.4 µM and 64.4 µM; in [5] it was 92.7 µM and > 64.3 µM; in [6] it was > 100 µM and 66.5 µM. For the same molecule, the TGI in test [7] was 51.7 µM and 37 µM; in test [8], 30.1 µM and 11.9 µM; in [9] it was more than 100 µM; in test [10] it was more than 100 µM. Also, the GI50 in test [2] is 27.4 µM and 9.34 µM; in [3], 42.4 µM and 20.3 µM; in test [4] it was 14 µM and 6.75 µM; in test [8] it was 14.5 µM and 3.24 µM; in test [10], 94.2 µM and 35.3 µM.

For `Cc1ncc(C(=O)Nc2ccc(CN3CCN(C)CC3)c(C(F)(F)F)c2)cc1C#Cc1cnc2cccnn12`, the GI50 in [1] is 0.195 µM; in test [2] it was 0.423 µM; in [3] it was 0.32 µM; in test [4], 0.005 µM; in [5], 1.01 µM; in test [6] it was 0.204 µM. Moreover, the GI50 in [7] was 0.205 µM; in [8], 1.05 µM; in test [9], 0.501 µM; in test [10], 0.413 µM. Besides, the TGI in test [1] worked out at 1.17 µM; in test [2], 4.14 µM; in [3], 1.53 µM; in [4], 2.64 µM; in [5], 4.71 µM; in test [6], 1.37 µM. The TGI came out at 4.15 µM in [7], 3.16 µM in test [8], 1.53 µM in [9] and 2.17 µM in [10].

(Values after PubChem BioAssay (NCI).)
